{"source": "patent US11723360B2", "about": "(priority 2018, dated 2023)", "key": {"Meloidogyne incognita": {"tested_on": "Meloidogyne incognita", "assay": "Insecticidal bioassay against root-knot nematodes in 96-well plate", "set-up": "Lethality Rate (%): dose or concentration left out as unconfirmed", "details": "for LC50: Meloidogyne incognita"}, "Caenorhabditis elegans": {"tested_on": "Caenorhabditis elegans", "assay": "Insecticidal bioassay against Caenorhabditis elegans in 96-well plate", "format": "in vivo", "details": "for LC50: Caenorhabditis elegans", "description": "20 μL of 1 mg/mL methylmalonic acid aqueous solution was added to the 96-well plate, and at the same time, purified water was added; the final concentrations of the methylmalonic acid in the well plate was adjusted to […] in order; 40 nematodes were added to each well; and a bioassay system was 200 μL in total, with the purified water as a control. The process was repeated 3 times for each group. They were cultured in an incubator at 16° C.\n20 μL of 1 mg/mL mixed aqueous solution of methylmalonic acid and betaine (mass ratio: 1:1) was added to the 96-well plate, and at the same time, purified water was added; the final concentrations of the compounded solution in the well plate was adjusted to 1000, 100, 25, 16.67, 12.5, 10, 1, 0.5, 0.25 μg/mL in order; and 40 nematodes were added to each well; a bioassay system was 200 μL in total, with the purified water as a control, and 3 times repeated for each group. They were cultured in an incubator at 16° C."}, "fungal plant pathogens": {"tested_on": "fungal plant pathogens", "assay": "Mycelium growth rate method, summary statement for all fungi tested", "format": "cell-based", "details": "Example 5", "description": "(§1) The mycelia of fungal pathogens were picked and inoculated to a PDA medium for activation. With a mycelium growth rate method, 200 μg/mL methylmalonic acid mother liquid was prepared using sterile water; 4.5 mL of sterile water was added to 0.5 mL of the mother liquid and evenly mixed; fungal masses were picked and placed in a PDA culture medium plate center, and then cultured at 28° C. to observe the results, with the sterile water as a negative control. After the plate was fully covered with the control mycelia, the diameters of the control and treatment colonies were counted with a crossing method.\nas §1, with “μg/mL mixed aqueous solution of” for “μg/mL”, “acid and betaine (mass ratio: 1:1)” for “acid mother liquid”, “the mixed solution” for “the mother liquid”"}, "Fusarium oxysporum": {"tested_on": "Fusarium oxysporum", "assay": "Mycelium growth rate method, fungal plant pathogens", "format": "cell-based", "set-up": "key: +: effective; −: ineffective", "details": "28° C.", "description": "as §1\nas §1, with “μg/mL mixed aqueous solution of” for “μg/mL”, “acid and betaine (mass ratio: 1:1)” for “acid mother liquid”, “the mixed solution” for “the mother liquid”"}, "Rhizoctonia solani": {"tested_on": "Rhizoctonia solani", "assay": "Mycelium growth rate method, fungal plant pathogens", "format": "cell-based", "set-up": "key: +: effective; −: ineffective", "details": "28° C.", "description": "as §1\nas §1, with “μg/mL mixed aqueous solution of” for “μg/mL”, “acid and betaine (mass ratio: 1:1)” for “acid mother liquid”, “the mixed solution” for “the mother liquid”"}, "Pestalotiopsis theae": {"tested_on": "Pestalotiopsis theae", "assay": "Mycelium growth rate method, fungal plant pathogens", "format": "cell-based", "set-up": "key: +: effective; −: ineffective", "details": "28° C.", "description": "as §1\nas §1, with “μg/mL mixed aqueous solution of” for “μg/mL”, “acid and betaine (mass ratio: 1:1)” for “acid mother liquid”, “the mixed solution” for “the mother liquid”"}, "Sclerotinia sclerotiorum": {"tested_on": "Sclerotinia sclerotiorum", "assay": "Mycelium growth rate method, fungal plant pathogens", "format": "cell-based", "set-up": "key: +: effective; −: ineffective", "details": "28° C.", "description": "as §1\nas §1, with “μg/mL mixed aqueous solution of” for “μg/mL”, “acid and betaine (mass ratio: 1:1)” for “acid mother liquid”, “the mixed solution” for “the mother liquid”"}, "Corynespora cassiicola": {"tested_on": "Corynespora cassiicola", "assay": "Mycelium growth rate method, fungal plant pathogens", "format": "cell-based", "set-up": "key: +: effective; −: ineffective", "details": "28° C.", "description": "as §1\nas §1, with “μg/mL mixed aqueous solution of” for “μg/mL”, “acid and betaine (mass ratio: 1:1)” for “acid mother liquid”, “the mixed solution” for “the mother liquid”"}, "Alternaria solani": {"tested_on": "Alternaria solani", "assay": "Mycelium growth rate method, fungal plant pathogens", "format": "cell-based", "set-up": "key: +: effective; −: ineffective", "details": "28° C.", "description": "as §1\nas §1, with “μg/mL mixed aqueous solution of” for “μg/mL”, “acid and betaine (mass ratio: 1:1)” for “acid mother liquid”, “the mixed solution” for “the mother liquid”"}, "Phytophthora capsici": {"tested_on": "Phytophthora capsici", "assay": "Mycelium growth rate method, fungal plant pathogens", "format": "cell-based", "set-up": "key: +: effective; −: ineffective", "details": "28° C.", "description": "as §1\nas §1, with “μg/mL mixed aqueous solution of” for “μg/mL”, “acid and betaine (mass ratio: 1:1)” for “acid mother liquid”, “the mixed solution” for “the mother liquid”"}, "Botrytis cinerea": {"tested_on": "Botrytis cinerea", "assay": "Mycelium growth rate method, fungal plant pathogens", "format": "cell-based", "set-up": "key: +: effective; −: ineffective", "details": "28° C.", "description": "as §1\nas §1, with “μg/mL mixed aqueous solution of” for “μg/mL”, “acid and betaine (mass ratio: 1:1)” for “acid mother liquid”, “the mixed solution” for “the mother liquid”"}, "[1]": {"details": "water, alcohol, ether; cited from earlier work"}, "Ralstonia solanacearum": {"tested_on": "Ralstonia solanacearum", "format": "cell-based"}, "Erwinia carotovora": {"tested_on": "Erwinia carotovora", "assay": "Agar plate diffusion method, bacterial plant pathogens", "format": "cell-based"}, "Xanthomonas campestris": {"tested_on": "Xanthomonas campestris", "assay": "Agar plate diffusion method, bacterial plant pathogens", "format": "cell-based", "details": "5 μL of 0.1 g/mL on 6 mm filter paper, 30° C."}, "[2]": {"details": "read-out: LC50 against the Meloidogyne incognita"}, "[3]": {"details": "read-out: LC50 value against the Meloidogyne incognita"}, "[4]": {"details": "200 μg/mL mother liquid, 0.5 mL + 4.5 mL sterile water, PDA"}, "[5]": {"details": "Example 9: 200 μg/mL mixed aqueous solution of methylmalonic acid and betaine (1:1), 0.5 mL + 4.5 mL water"}, "[6]": {"details": "5 μL of 0.1 g/mL on 6 mm filter paper, 30° C."}}, "note": "Like-named read-outs stand apart in the source and are kept apart here."}
{"smiles": "C[N+](C)(C)CC(=O)O", "note": "[betaine]", "values": [{"measurement": "LC50", "setting": "Meloidogyne incognita; [2]", "value": 75.2, "unit": "µg/mL"}, {"measurement": "LC50", "setting": "Meloidogyne incognita; [3]", "value": 75.2, "unit": "µg/mL"}, {"measurement": "LC50", "setting": "Caenorhabditis elegans; text of Examples 3 and 7, read-out: LC50 against the Caenorhabditis elegans", "value": 14.8, "unit": "µg/mL"}]}
{"smiles": "CC(C(=O)O)C(=O)O", "note": "[methylmalonic acid]", "values": [{"measurement": "microbicidal activity against the fungal plant pathogens", "setting": "fungal plant pathogens", "value": "showed no microbicidal activity"}, {"measurement": "Microbicidal Effect", "setting": "Fusarium oxysporum; [4]", "value": "−"}, {"measurement": "Microbicidal Effect", "setting": "Fusarium oxysporum; [5]", "value": "−"}, {"measurement": "Microbicidal Effect", "setting": "Rhizoctonia solani; [4]", "value": "−"}, {"measurement": "Microbicidal Effect", "setting": "Rhizoctonia solani; [5]", "value": "−"}, {"measurement": "Microbicidal Effect", "setting": "Pestalotiopsis theae; [4]", "value": "−"}, {"measurement": "Microbicidal Effect", "setting": "Pestalotiopsis theae; [5]", "value": "−"}, {"measurement": "Microbicidal Effect", "setting": "Sclerotinia sclerotiorum; [4]", "value": "−"}, {"measurement": "Microbicidal Effect", "setting": "Sclerotinia sclerotiorum; [5]", "value": "−"}, {"measurement": "Microbicidal Effect", "setting": "Corynespora cassiicola; [4]", "value": "−"}, {"measurement": "Microbicidal Effect", "setting": "Corynespora cassiicola; [5]", "value": "−"}, {"measurement": "Microbicidal Effect", "setting": "Alternaria solani; [4]", "value": "−"}, {"measurement": "Microbicidal Effect", "setting": "Alternaria solani; [5]", "value": "−"}, {"measurement": "Microbicidal Effect", "setting": "Phytophthora capsici; [4]", "value": "−"}, {"measurement": "Microbicidal Effect", "setting": "Phytophthora capsici; [5]", "value": "−"}, {"measurement": "Microbicidal Effect", "setting": "Botrytis cinerea; [4]", "value": "−"}, {"measurement": "Microbicidal Effect", "setting": "Botrytis cinerea; [5]", "value": "−"}, {"measurement": "Lethality Rate (%)", "setting": "Meloidogyne incognita; Dose 1", "value": 8.1, "unit": "%"}, {"measurement": "Lethality Rate (%)", "setting": "Meloidogyne incognita; Dose 10", "value": 12.5, "unit": "%"}, {"measurement": "Lethality Rate (%)", "setting": "Meloidogyne incognita; Dose 12.5", "value": 29.3, "unit": "%"}, {"measurement": "Lethality Rate (%)", "setting": "Meloidogyne incognita; Dose 16.67", "value": 76.3, "unit": "%"}, {"measurement": "Lethality Rate (%)", "setting": "Meloidogyne incognita; Dose 25", "value": 81.1, "unit": "%"}, {"measurement": "Lethality Rate (%)", "setting": "Meloidogyne incognita; Dose 50", "value": 80, "unit": "%"}, {"measurement": "Lethality Rate (%)", "setting": "Meloidogyne incognita; Dose 100", "value": 97.5, "unit": "%"}, {"measurement": "Lethality Rate (%)", "setting": "Meloidogyne incognita; Dose 1000", "value": 97.4, "unit": "%"}, {"measurement": "LC50", "setting": "Meloidogyne incognita; [2]", "value": 13.1, "unit": "µg/mL"}, {"measurement": "LC50", "setting": "Meloidogyne incognita; [3]", "value": 13.1, "unit": "µg/mL"}, {"measurement": "LC50", "setting": "Meloidogyne incognita; read-out: Medial Lethal Concentration (LC50, ug/mL)", "value": 13.1, "unit": "µg/mL"}, {"measurement": "solubility (physical properties)", "setting": "[1]", "value": "soluble in water, alcohol and ether"}, {"measurement": "Diameter of Inhibition Zone", "setting": "Ralstonia solanacearum; [6]", "value": 12, "unit": "mm"}, {"measurement": "Microbicidal Effect", "setting": "Ralstonia solanacearum; [6]", "value": "++ (with microbicidal activity, and the diameter of an inhibition zone being more than 10 mm)"}, {"measurement": "microbicidal activity against the Pseudomonas solanacearum", "setting": "Ralstonia solanacearum; 5 μL of 0.1 g/mL, Example 4", "value": "showed a microbicidal activity"}, {"measurement": "Diameter of Inhibition Zone", "setting": "Erwinia carotovora; [6]", "value": 6.9, "unit": "mm"}, {"measurement": "Microbicidal Effect", "setting": "Erwinia carotovora; [6]", "value": "+ (with microbicidal activity, the diameter of an inhibition zone being less than 10 mm)"}, {"measurement": "microbicidal activity against the Erwinia carotovora", "setting": "Erwinia carotovora; 5 μL of 0.1 g/mL, Example 4", "value": "showed a microbicidal activity"}, {"measurement": "Diameter of Inhibition Zone", "setting": "Xanthomonas campestris", "value": 0, "unit": "mm"}, {"measurement": "Microbicidal Effect", "setting": "Xanthomonas campestris", "value": "−"}, {"measurement": "LC50", "setting": "Caenorhabditis elegans; 16° C., table value, read-out: Medial Lethal Concentration (LC50, ug/mL)", "value": 1.2, "unit": "µg/mL"}, {"measurement": "LC50", "setting": "Caenorhabditis elegans; read-out: LC50 value against the Caenorhabditis elegans, text of Example 3", "value": 1.2, "unit": "µg/mL"}, {"measurement": "Lethality Rate (%)", "setting": "Caenorhabditis elegans; Dose 1 pg/mL", "value": 18.4, "unit": "%"}, {"measurement": "Lethality Rate (%)", "setting": "Caenorhabditis elegans; Dose 10 pg/mL", "value": 70.0, "unit": "%"}, {"measurement": "Lethality Rate (%)", "setting": "Caenorhabditis elegans; Dose 16.67 pg/mL", "value": 94.9, "unit": "%"}, {"measurement": "Lethality Rate (%)", "setting": "Caenorhabditis elegans; Dose 25 pg/mL", "value": 90.5, "unit": "%"}, {"measurement": "Lethality Rate (%)", "setting": "Caenorhabditis elegans; Dose 100 pg/mL", "value": 97.4, "unit": "%"}, {"measurement": "Lethality Rate (%)", "setting": "Caenorhabditis elegans; Dose 1000 pg/mL", "value": 97.5, "unit": "%"}]}
